Experiments:
[1] = in vivo; cited from earlier work
[2] = system: migration inhibitory factor (MIF); test: Randomized, double-blind, placebo-controlled study in COVID-19 subjects at risk for ARDS: plasma MIF level
Description: The study consisted of a Screening Phase followed by a Treatment and Follow-up Phase. Following the Screening Phase, if the subject met eligibility criteria, subject was administered treatment with ibudilast or placebo. Subjects received ibudilast 100 mg/d (50 mg b.i.d) or placebo every day for 7 days. Upon completion of the 7-day Treatment Phase, subject was followed-up at Day 14 and at Day 28 post baseline.
The following screening assessments were performed upon signing the ICF: inclusion/exclusion criteria review, physical examination, assess vital signs and O2 use, clinical status using the NIAID scale, ECG, draw blood for plasma cytokines that include: migration inhibitory factor (MIF), interleukin 1-beta (IL-1β), interleukin 6 (IL-6), tumor necrosis factor (TNF-α), and C-reactive protein (CRP). Pharmacokinetic (PK) samples, complete blood count (CBC), comprehensive metabolic panel (CMP), D-dimer, and coagulation tests were also be drawn.
On Day 1 (Baseline) of the Treatment Phase, hospitalized subjects were treated with ibudilast (oral, 50 mg (5 capsules) b.i.d) or placebo for a 7-day period. Subjects underwent study-related procedures including physical examination, vital signs, clinical status assessment using the NIAID scale, O2 use, ECG, blood collection of biomarkers, PK, CBC, CMP, D-dimer and coagulation and information on adverse events and concomitant medications were recorded.
The Follow-up Phase consisted of two visits, Day 14 (±3 d) and Day 28 (±3 d). • Day 14 (in-patient): On Day 14, conducted physical examination, clinical status, vital signs and O2 use, ECG, CBC, CMP, D-dimer, and coagulation tests, biomarkers, AE and conmed review, and recorded survival status. • Day 28 (telephone follow-up if patient was no longer hospitalized) On Day 28, clinical status and survival status were recorded.

[3] = system: MIF; test: Open-label biomarker study in ALS subjects: serum MIF level before and after ibudilast; type: in vivo, human; settings: 19 ALS subjects who completed the study
Description: This was a multi-center, open-label study with a 6 weeks Screening Phase, 36 weeks Treatment Phase, and a Follow-up Phase 4 weeks after the last dose. Ibudilast was orally administered 50 mg b.i.d. for a total daily dose of 100 mg/day.
The objectives of the Study were (i) to measure the impact of ibudilast on [11C]-PBR28 uptake in the motor cortices and brain stem measured by positron emission tomography (PET) imaging at 24 weeks; (ii) to measure the impact of ibudilast on several markers of neuro-inflammation measured by blood biomarkers; and (iii) to evaluate safety and tolerability.
Out of the 46 patients screened, eleven (11) individuals were screen failures. Total of the 35 enrolled subjects were enrolled. Of the 35 enrolled subjects, 16 subjects (45.7%) terminated the study early, and 19 subjects completed the trial. Of these 16 early study withdrawals, 11 (68.8%) were attributed to AEs and 5 (31.2%) were attributed to consent withdrawn.
Serum samples for the 19 subjects who completed the study were evaluated for MIF level before treatment and after treatment with ibudilast. • Mean (SD) pre-treatment serum MIF=422,989 (233,440) pg/ml • Mean (SD) post-treatment serum MIF=300,922 (113,843) pg/ml • Mean (SE) change/month=−19, 845 (8934) pg/ml (p=0.03)

[4] = COVID-19 subject A, ibudilast oral 50 mg b.i.d. for 7 days
[5] = COVID-19 subject B, ibudilast oral 50 mg b.i.d. for 7 days
[6] = COVID-19 subject C, ibudilast oral 50 mg b.i.d. for 7 days
[7] = COVID-19 subject D, ibudilast oral 50 mg b.i.d. for 7 days
[8] = mean of 4 COVID-19 subjects, ibudilast oral 50 mg b.i.d. for 7 days

Question: Which CNS penetration [1] does the source give for `CC(C)C(=O)c1c(C(C)C)nn2ccccc12` [ibudilast, 2-methyl-1-(2-(1-methylethyl)pyrazolo(1,5-a)pyridin-3-yl)1-propanone] here?
Answer: Its CNS penetration is “good CNS penetration”.

Question: What about the “Difference of mean change of MIF level between ibudilast-treated group and placebo group” value ([2]; 4 ibudilast vs 4 placebo COVID-19 subjects, p value=0.00552) of the same compound?
Answer: Its value is 17277 pg/mL.

Question: What about the “Plasma MIF level pre-treatment, Subject A” value ([2]; COVID-19 subject A, ibudilast-treated group, before treatment) of the same compound?
Answer: The value was 25267 pg/mL.

Question: And the “Plasma MIF level difference (post minus pre), Subject A” value [2, 4]?
Answer: Its value is -11130 pg/mL.

Question: What about the “Plasma MIF level post-treatment, Subject A” value [2, 4] of the same compound?
Answer: Its value is 14137 pg/mL.

Question: What about the “Plasma MIF level pre-treatment, Subject B” value ([2]; COVID-19 subject B, ibudilast-treated group, before treatment) of the same compound?
Answer: Its value is 21130 pg/mL.

Question: What about the “Plasma MIF level difference (post minus pre), Subject B” value [2, 5] of the same compound?
Answer: Its value is -1497 pg/mL.

Question: What about the “Plasma MIF level post-treatment, Subject B” value [2, 5] of the same compound?
Answer: The value was 19633 pg/mL.

Question: And the “Plasma MIF level pre-treatment, Subject C” value ([2]; COVID-19 subject C, ibudilast-treated group, before treatment)?
Answer: The value was 17763 pg/mL.

Question: And the “Plasma MIF level difference (post minus pre), Subject C” value [2, 6]?
Answer: Its value is -12037 pg/mL.

Question: And the “Plasma MIF level post-treatment, Subject C” value [2, 6]?
Answer: Its value is 5726 pg/mL.

Question: And the “Plasma MIF level pre-treatment, Subject D” value ([2]; COVID-19 subject D, ibudilast-treated group, before treatment)?
Answer: Its value is 27005 pg/mL.

Question: And the “Plasma MIF level difference (post minus pre), Subject D” value [2, 7]?
Answer: The value was -18433 pg/mL.

Question: What about the “Plasma MIF level post-treatment, Subject D” value [2, 7] of the same compound?
Answer: The value was 8572 pg/mL.

Question: What about the “Mean pre-treatment plasma MIF level” value ([2]; mean of 4 COVID-19 subjects, ibudilast-treated group, before treatment) of the same compound?
Answer: The value was 22791.3 pg/mL.

Question: And the “Mean change MIF level” value [2, 8]?
Answer: Its value is -110774.3 pg/mL.

Question: What about the “Mean post-treatment plasma MIF level” value [2, 8] of the same compound?
Answer: Its value is 12017 pg/mL.

Question: And the “Mean change MIF level” value ([2]; mean of 4 COVID-19 subjects, ibudilast oral 50 mg b.i.d. for 7 days, listed as Ibudilast)?
Answer: The value was -10774.3 pg/mL.

Question: What about the “Mean (SD) post-treatment serum MIF” value ([3]; after ibudilast oral 50 mg b.i.d. (100 mg/day), 36 weeks Treatment Phase) of the same compound?
Answer: The value was 300,922 (113,843) pg/ml.

Question: And the “Mean (SD) pre-treatment serum MIF” value ([3]; before treatment)?
Answer: The value was 422,989 (233,440) pg/ml.
